Measurements published in patent publication US20220160849A1, “CANCER VACCINE FORMULATION” (MIE UNIVERSITY, priority 2019, published 2022).

Tested on: mouse melanoma B16F10 cell line expressing TRP2, TRP1, and gp100
Experiment: Mouse tumor growth test, mouse melanoma B16F10
Format: in vivo, C57BL/6 mouse
Procedure: A mouse fibrosarcoma CMS5a cell line expressing mERK2, a mouse colorectal cancer cell CT26 cell line expressing AH1 and gp70, or a mouse melanoma B16F10 cell line expressing TRP2, TRP1, and gp100 was subcutaneously transplanted. The CMS5a cell line and the CT26 cell line were each subcutaneously transplanted in an amount of 1×10^6 cultured cells/100 μL/individual to each BALB/c mouse (female: body weight: 15 to 25 g). The B16F10 cell line was subcutaneously transplanted in an amount of […] cultured cells/100 μL/individual to each C57BL/6 mouse (female; body weight: 15 to 25 g). Then, tumor volumes were measured over time.
Each sample of Table 17 was subcutaneously administered with the frequency described in Table 17 to the mouse melanoma B16F10-bearing mice prepared by the method described in Example 5 to conduct a mouse tumor growth test.
Each sample of Table 20 was subcutaneously administered with the frequency described in Table 20 to the mouse melanoma B16F10-bearing mice prepared by the method described in Example 5 to conduct a mouse tumor growth test.
Each sample of Table 21 was subcutaneously administered with the frequency described in Table 21 to the mouse melanoma B16F10-bearing mice prepared by the method described in Example 5 to conduct a mouse tumor growth test.
Each sample of Table 22 was subcutaneously administered with the frequency described in Table 22 to the mouse melanoma B16F10-bearing mice prepared by the method described in Example 5 to conduct a mouse tumor growth test.
Each sample of Table 23 was subcutaneously administered with the frequency described in Table 23 to the mouse melanoma B16F10-bearing mice prepared by the method described in Example 5 to conduct a mouse tumor growth test.

[1] = Example 7-4, FIG. 23, adjuvant (Sting 0.015 mg, R848 0.05 mg) with 99k HA-C6-Chol-42% / TRP2TRP1gp100-6Y 0.05 mg s.c. day 10, 14, 17, 20

Row | Molecule | tumor growth suppressive effect (tumor volume) [1] | tumor growth suppressive effect (tumor volume) (Example 7-3, FIG. 22, adjuvant 0.05 mg with 99k HA-C6-Chol-42% / TRP2TRP1gp100-6Y 0.05 mg s.c. day 10, 14, 17, 21)
1 | CCOCc1nc2c(N)nc3ccccc3c2n1CC(C)(C)O [R848] | high tumor growth suppressive effect | –
2 | Nc1nc2c(ncn2C2OC3COP(=O)(S)OC4C(COP(=O)(S)OC2C3O)OC(n2cnc3c(N)ncnc32)C4O)c(=O)[nH]1 (stereo not drawn) [Sting, 2′3′-cGAM(PS)2(Rp/Sp)] | high tumor growth suppressive effect | –
3 | polyIC | – | high tumor growth suppressive effect
